Test results reported in PMC7482066, “Unstable Mechanisms of Resistance to Inhibitors of Escherichia coli Lipoprotein Signal Peptidase” (mBio, 2020).

Tests used:
E. coli CFT073 imp4213 = assay: Frequency of resistance (FOR); assay type: cell-based; details: 4× MIC, MHII agarose
Method: Frequencies of resistance (FORs) of G0790 were determined for E. coli CFT073, E. cloacae (ATCC 13047), and K. pneumoniae (ATCC 700603) as previously published ([70]). To determine the FOR, 3 to 4 colonies of the strain to be tested were picked from a fresh plate and diluted to an optical density at 600 nm (OD600) of 0.00001 in 1 ml of cation-adjusted MHBII. Ten independent 5-ml cultures in MHBII were prepared by inoculating 5 μl (approximately 1 × 10^3 CFU) and incubated at 37°C for 18 h. The bacteria were pelleted by centrifugation at 4000 × g at 4°C for 15 min and resuspended in 0.5 ml fresh MHBII. Two hundred fifty microliters of the bacterial suspension was plated evenly on MHII agarose plates containing globomycin or G0790 at a final concentration of 4× and 8× MIC. In parallel, CFU from each independent culture was measured by spotting 10-fold serial dilutions on MHII agar plates and incubated at 37°C for 18 h. Colonies were counted at days 1, 2, and 3 postinoculation. FOR was calculated as the ratio of the total number of resistant colonies relative to the total CFU plated. For strains that had no resistant colonies growing on plates, the p0 method was used to calculate the FOR (FOR = m/total CFU plated, where m = −ln p0 and p0 is the proportion of cultures with no mutants; 0.7 ≥ p0 ≥ 0.1), as described previously ([71]). Colonies were picked and resuspended in 30 μl MHBII broth medium, and 10 μl was plated on an MHII agar plate containing G0790 to be used to determine the MIC. Of the remaining 20 μl, half was used to inoculate 1.5 ml MHBII broth medium containing G0790 and grown at 37°C for 18 h to generate cell lysates for Western blot analysis, isolate genomic DNA (gDNA) for whole-genome sequencing, and for frozen glycerol stocks.

E. coli MG1655 ΔtolC = assay: MIC; assay type: cell-based; details: E. coli MG1655 WT vs MG1655 ΔtolC
Method: MICs of compounds in each strain were determined in cation-adjusted Mueller-Hinton II (MHII) broth or MHII agar according to the Clinical and Laboratory Standards Institute protocol (CLSI 2006). To measure the effect of protein binding on activity, MIC assays were performed in the presence of 50% heat-inactivated human serum. The serum killing assay was performed as described previously ([43]). FOR assays and growth on plates containing G0790 were always performed on MHII agarose plates.

LspA = details: cited from earlier work; for LspA inhibition, mode: in words
From the text: Bacterial lipoprotein biosynthesis is an attractive target for novel antibiotic drug discovery, as bacterial lipoproteins play critical roles in adhesion, nutrient uptake, antibiotic resistance, virulence, invasion, and immune evasion ([14]). Lipoprotein biosynthesis in Gram-negative bacteria is mediated by three essential inner membrane-localized enzymes ([14]), which work sequentially to generate the mature triacylated lipoproteins. The second enzyme in the pathway, prolipoprotein signal peptidase (LspA), is an aspartyl endopeptidase which cleaves off the signal peptide N-terminal to a conse ... || Our efforts to identify potent GBM analogs were driven by whole bacterial cell activity assays due to the low translatability of in vitro biochemical activity ([34], [35]).

[1] = system: lspA-overexpressing or lpp-deleted bacteria; details: in words, cited from earlier work
[2] = system: wild-type (WT) Gram-negative bacteria; details: in words; cited from earlier work
From the text: Therefore, with the goal of increasing GBM whole-cell potency through medicinal chemistry optimization, we identified G0790 as an analog with increased growth inhibitory activity against multiple Gram-negative bacterial species ([36]). G0790 contains (S)-2,3-diaminopropionic acid (Dap), cyclohexylglycine (Chg), and N-methyl ...

E. coli CFT073 = assay: Bactericidal activity, CFU over time; assay type: cell-based; details: G0790 at 2× MIC, two independent experiments in duplicates
Lpp = details: in words; cited from earlier work
From the text: We confirmed that the increase in potency against WT bacterial strains was specific to LspA by using multiple parallel approaches. […] Third, like GBM, G0790 is bactericidal, a ...

Structure (SMILES)	FOR (frequency of resistance) (E. coli CFT073 imp4213)	WT/tolC MIC shift (E. coli MG1655 ΔtolC) [fold]	LspA inhibition, mode (LspA)	Ki (LspA; previously described by Dev et al.) [nM]	Effect of plasmid-based lspA overexpression [1]	Effect of complete Lpp deletion ([1]; previous finding, ref as printed: none in abstract)	Growth inhibition of WT Gram-negative bacteria [2]	Bactericidal activity (E. coli CFT073)	Accumulation of peptidoglycan-associated Lpp in the inner membrane (Lpp)
CCCCCC[C@H]1OC(=O)CNC(=O)[C@H]([C@H](C)O)NC(=O)[C@H](CO)NC(=O)[C@H]([C@H](C)CC)NC(=O)[C@H](CC(C)C)N(C)C(=O)[C@@H]1C [GBM, globomycin]	1.4 × 10^−9	~128	inhibit LspA function by targeting the catalytic dyad aspartic acid residues	36	confer resistance	leads to globomycin resistance	weak growth inhibition	bactericidal	accumulation of the peptidoglycan-associated form of Lpp in the inner membrane
CCCC1OC(=O)C(C)CC(C)CCCCC(=O)CCCC(CC)/C=C/C=C(\COC)CCC(O)C(O)CC(O)CNC1=O (centres unmarked) [myxovirescin]			inhibit LspA function by targeting the catalytic dyad aspartic acid residues		confer resistance				
